{"source": "patent US20060095978A1", "about": "“Screening assay” (priority 2002, published 2006)", "type_in_all_cases": "in vivo, mouse", "key": {"[1]": {"system": "IL-1β", "experiment": "Serum IL-1β in DO11.10 mice primed with OVA-peptide and challenged with LPS", "protocol": "(§1) Animals are provided as described in Example 2a).\n(§2) b) Administration of OVA323-339 (=OVA-peptide) and LPS Groups of six DO11.10 mice receive i.p. 30 μg of OVA323-339 peptide (98% purity, pi Chem R&D, Graz Austria) in 0.2 ml 0.9% saline per mouse. Control mice are injected i.p. with the same amount of saline.\n(§3) 18 hours later the mice are challenged i.p. with 100, 300 or 500 μg LPS (E. coli 0111: B4 Sigma Vienna, Austria). At 2, 4 and 6 hours after the LPS administration about 200 μl of blood are collected by puncture of the retro-orbital plexus under ether anesthesia. The sera are collected and stored frozen at −20° until analyzed.\n(§4) Murine IL-1α, IL-1β and TNF-α serum levels are determined by ELISAs (IL-1α and TNF-α, Bender MedSystems, Vienna Austria; IL-1β, Quantikine R&D Systems, Minneapolis, Minn.). Results are expressed as pg per ml serum. Differences in the serum cytokines concentrations between the different experimental groups are examined for statistical significance by the Mann-Whitney U test, two tailed. Results are expressed as the mean±SEM. p<0.05 is regarded as significant.\nValues of serum IL-1β responses in control DO11.10 mice challenged with various doses of LPS (=NaCl+LPS) and in mice primed with the OVA-peptide 18 hours prior to the LPS challenge (=OVA+LPS) are given in TABLE 7. The serum IL-1β levels are expressed as mean pg per ml serum±SEM."}, "[2]": {"system": "TNF-α", "experiment": "Serum TNF-α in DO11.10 mice primed with OVA-peptide and challenged with LPS", "protocol": "as §1, §2, §3, §4\nThe effects of various doses of LPS (100, 300, or 500 μg/mouse) on the production of TNF-α in the serum of non-sensitized DO11.10 mice or mice sensitized by i.p. injection of OVA-peptide (30 μg/mouse, 18 hours prior to LPS challenge) are given in TABLE 8. The TNF-α serum levels are expressed as mean pg per ml serum±SEM."}, "[3]": {"system": "IL-4", "experiment": "Serum IL-4 in OVA323-339 stimulated DO11.10 mice (ELISA)", "settings": "for IL-4 level in pg/ml serum on day 0 after 0 hours: 0 hours (before injection)", "protocol": "(§5) Groups of six, 8-10 weeks old, male or female DO11.10 mice weighing between 20-22 g are obtained as described in Murphy K. M. et al. 1990, Science 250:1720-1722. The animals are maintained in Microvent positive air supply cages (22±1° C., 55±5% relative humidity, 50-70 changes of fresh air/hour and 12 hours day and night cycle) with sawdust bedding. Standard laboratory mouse chow (SNIFF, Soest, Germany) and drinking water is given ad libidum. The animals are used for the study after an adaptation period of 10-14 days and grouped (6 per group) in type II Macrolon cages one day before the experiment.\n(§6) Groups of six DO11.10 mice are i.p. injected with 10 μg of ovalbumin (OVA, Sigma, St. Louis, USA) absorbed to 2 mg of Al(OH)3 (Alu Gel S; 2% Al(OH)3, Serva, Heidelberg, FRG) and diluted with saline to a volume of 0.2 ml or various amounts (1, 3, 10, 30, or 90 μg per mouse) of alum-precipitated OVA323-339 peptide (98% purity, piChem R&D, Graz Austria) in 0.2 ml on days 0 and 14. Before and at different time points on days 0 and 14 after the OVA or OVA323-339 peptide administration about 200 μl of blood are collected by puncture of the retro-orbital plexus under ether anesthesia.\nThe sera are collected and stored frozen at −20° C. until analyzed. […]\n(§7) Murine IL-2, IFN-γ and IL-4 are analyzed by immunoassays (Quantikine R&D Systems, Minneapolis, Minn., USA). Results are expressed as pg per ml serum expressed as mean±SEM pg of the cytokine indicated per ml serum. Test and control groups are evaluated by Dunn test by Kruskall-Wallis One Way Anova using the SigmaStat® program.\nSerum IL-4 levels after primary and secondary OVA323-339 peptide antigen stimulation are shown in TABLE 3: Groups of 6 mice receive various doses (1, 3, 10, 30 and 90 μg/mouse) of alum-precipitated OVA323-339 peptide i.p. on day 0 and 14. Animals of the control group are injected with alum. Blood is collected before and at 2, 4, and 6 hours after the first (A) and after the second peptide injection (B). IL-4 is determined in the sera by an ELISA. Results are expressed as mean pg per ml serum±SEM. […]"}, "[4]": {"system": "IL-2", "experiment": "Serum IL-2 in OVA323-339 stimulated DO11.10 mice (ELISA)", "protocol": "as §5, §6\nThe sera are collected and stored frozen at −20° C. until analyzed.\nThe Neoral solution is diluted further with tap water. Doses of 20, 40, and 80 mg/kg b.w. are administered in a volume of 0.2 ml. Animals in the control group receive the solvent alone.\nas §7\nAnimals of the control group are injected with alum. Blood is collected before and at 2 hours after the peptide injection. IL-2 is determined in the sera by an ELISA. Results are expressed as mean pg per ml serum±SEM.\nBlood is collected 2 hours later and IFN-γ, IL-4 and IL-2 levels are determined in the sera by ELISAs. Results are expressed as mean pg per ml serum±SEM."}}, "data": [{"substance": "OVA323-339: peptide derived from chicken ovalbumin containing amino acids from position 323 to 339 (KISQAVHAAHAEINEAG; UniProt P01012 323-339, looked up, fragment)", "values": [{"measurement": "IL-1β in OVA-peptide primed versus unprimed mice", "setting": "[1]; 100 μg LPS, 2 hours", "value": 1.6, "unit": "fold"}, {"measurement": "IL-1β in OVA-peptide primed versus unprimed mice", "setting": "[1]; 100 μg LPS, 4 hours", "value": 1.7, "unit": "fold"}, {"measurement": "IL-1β in OVA-peptide primed versus unprimed mice", "setting": "[1]; 100 μg LPS, 6 hours", "value": 7.8, "unit": "fold"}, {"measurement": "IL-1β in OVA-peptide primed versus unprimed mice", "setting": "[1]; 300 μg LPS, 2 hours", "value": 1.9, "unit": "fold"}, {"measurement": "IL-1β in OVA-peptide primed versus unprimed mice", "setting": "[1]; 300 μg LPS, 4 hours", "value": 2.7, "unit": "fold"}, {"measurement": "IL-1β in OVA-peptide primed versus unprimed mice", "setting": "[1]; 300 μg LPS, 6 hours", "value": 3.0, "unit": "fold"}, {"measurement": "IL-1β in OVA-peptide primed versus unprimed mice", "setting": "[1]; 500 μg LPS, 2 hours", "value": 3.5, "unit": "fold"}, {"measurement": "IL-1β in OVA-peptide primed versus unprimed mice", "setting": "[1]; 500 μg LPS, 4 hours", "value": 2.2, "unit": "fold"}, {"measurement": "IL-1β in OVA-peptide primed versus unprimed mice", "setting": "[1]; 500 μg LPS, 6 hours", "value": 5.7, "unit": "fold"}, {"measurement": "TNF-α in OVA-primed versus unprimed mice", "setting": "[2]; 100 μg LPS, 2 hours", "value": 9.7, "unit": "fold"}, {"measurement": "change in TNF-α levels, OVA-primed versus unprimed", "setting": "[2]; 100 μg LPS, 4 hours", "value": "no significant changes"}, {"measurement": "TNF-α in OVA-peptide primed versus unprimed mice", "setting": "[2]; 300 μg LPS, 2 hours", "value": 7.8, "unit": "fold"}, {"measurement": "difference in TNF-α levels, OVA-peptide primed versus unprimed", "setting": "[2]; 300 μg LPS, 4 hours", "value": "no difference"}, {"measurement": "TNF-α in OVA-peptide primed versus unprimed mice", "setting": "[2]; 500 μg LPS, 2 hours", "value": 5.2, "unit": "fold"}, {"measurement": "IL-4 level in pg/ml serum on day 0 after 0 hours", "setting": "[3]; 1 μg OVA323-339 i.p.", "value": "25.770 ± 2.618", "unit": "pg/mL"}, {"measurement": "IL-4 level in pg/ml serum on day 0 after 2 hours", "setting": "[3]; 1 μg OVA323-339 i.p.", "value": "36.426 ± 5.871", "unit": "pg/mL"}, {"measurement": "IL-4 level in pg/ml serum on day 0 after 4 hours", "setting": "[3]; 1 μg OVA323-339 i.p.", "value": "4.094 ± 1.072", "unit": "pg/mL"}, {"measurement": "IL-4 level in pg/ml serum on day 0 after 6 hours", "setting": "[3]; 1 μg OVA323-339 i.p.", "value": "13.354 ± 4.010", "unit": "pg/mL"}, {"measurement": "change of IL-4 levels", "setting": "[3]; 1 μg of peptide, first injection", "value": "remain unchanged"}, {"measurement": "IL-4 level in pg/ml serum on day 0 after 0 hours", "setting": "[3]; 3 μg OVA323-339 i.p.", "value": "17.905 ± 3.616", "unit": "pg/mL"}, {"measurement": "IL-4 level in pg/ml serum on day 0 after 2 hours", "setting": "[3]; 3 μg OVA323-339 i.p.", "value": "37.706 ± 4.028", "unit": "pg/mL"}, {"measurement": "IL-4 level in pg/ml serum on day 0 after 4 hours", "setting": "[3]; 3 μg OVA323-339 i.p.", "value": "7.903 ± 0.957", "unit": "pg/mL"}, {"measurement": "IL-4 level in pg/ml serum on day 0 after 6 hours", "setting": "[3]; 3 μg OVA323-339 i.p.", "value": "11.051 ± 2.549", "unit": "pg/mL"}, {"measurement": "increase of serum IL-4 levels compared to alum control", "setting": "[3]; 3 μg of peptide, after 2 hours", "value": "only slightly"}, {"measurement": "IL-4 level in pg/ml serum on day 0 after 0 hours", "setting": "[3]; 10 μg OVA323-339 i.p.", "value": "16.296 ± 3.397", "unit": "pg/mL"}, {"measurement": "IL-4 level in pg/ml serum on day 0 after 2 hours", "setting": "[3]; 10 μg OVA323-339 i.p.", "value": "41.870 ± 9.751", "unit": "pg/mL"}, {"measurement": "IL-4 level in pg/ml serum on day 0 after 4 hours", "setting": "[3]; 10 μg OVA323-339 i.p.", "value": "18.804 ± 1.757", "unit": "pg/mL"}, {"measurement": "IL-4 level in pg/ml serum on day 0 after 6 hours", "setting": "[3]; 10 μg OVA323-339 i.p.", "value": "5.735 ± 2.226", "unit": "pg/mL"}, {"measurement": "increase of serum IL-4 levels compared to alum control", "setting": "[3]; 10 μg of peptide, after 2 hours", "value": "only slightly"}, {"measurement": "IL-4 level in pg/ml serum on day 0 after 0 hours", "setting": "[3]; 30 μg OVA323-339 i.p.", "value": "16.524 ± 2.209", "unit": "pg/mL"}, {"measurement": "IL-4 level in pg/ml serum on day 0 after 2 hours", "setting": "[3]; 30 μg OVA323-339 i.p.", "value": "93.594 ± 29.015", "unit": "pg/mL"}, {"measurement": "IL-4 level in pg/ml serum on day 0 after 4 hours", "setting": "[3]; 30 μg OVA323-339 i.p.", "value": "41.725 ± 10.226", "unit": "pg/mL"}, {"measurement": "IL-4 level in pg/ml serum on day 0 after 6 hours", "setting": "[3]; 30 μg OVA323-339 i.p.", "value": "17.173 ± 2.069", "unit": "pg/mL"}, {"measurement": "rise of serum IL-4 levels", "setting": "[3]; 30 μg of peptide, at 2 hours", "value": 3, "unit": "fold"}, {"measurement": "IL-4 level in pg/ml serum on day 0 after 2 hours", "setting": "[3]; 90 μg OVA323-339 i.p.", "value": "273.017 ± 95.997", "unit": "pg/mL"}, {"measurement": "IL-4 level in pg/ml serum on day 0 after 4 hours", "setting": "[3]; 90 μg OVA323-339 i.p.", "value": "146.940 ± 21.784", "unit": "pg/mL"}, {"measurement": "IL-4 level in pg/ml serum on day 0 after 6 hours", "setting": "[3]; 90 μg OVA323-339 i.p.", "value": "127.616 ± 7.397", "unit": "pg/mL"}, {"measurement": "rise of serum IL-4 levels", "setting": "[3]; 90 μg peptide, after 4 and 6 hours", "value": "7-8 fold"}, {"measurement": "increase of serum IL-4 levels", "setting": "[3]; 90 μg peptide, after 2 hours", "value": 14, "unit": "fold"}, {"measurement": "rise in the IL-4 levels after the second antigen stimulation", "setting": "[3]; second antigen stimulation (day 14)", "value": "up to several 100 fold"}, {"measurement": "change of IL-4 levels compared to the control", "setting": "[3]; second injection of 1 μg of peptide 2 weeks later", "value": "does not change"}, {"measurement": "IL-2 levels in pg/ml serum on day 0 after 2 hours", "setting": "[4]; 3 μg OVA323-339 i.p.", "value": "327.513 ± 76.331", "unit": "pg/mL"}, {"measurement": "IL-2 levels in pg/ml serum on day 0 after 2 hours", "setting": "[4]; 10 μg OVA323-339 i.p.", "value": "2866.966 ± 361.613", "unit": "pg/mL"}, {"measurement": "IL-2 levels in pg/ml serum on day 0 after 2 hours", "setting": "[4]; 30 μg OVA323-339 i.p.", "value": "2926.303 ± 381.536", "unit": "pg/mL"}, {"measurement": "IL-2 levels in pg/ml serum on day 0 after 2 hours", "setting": "[4]; 90 μg OVA323-339 i.p.", "value": "4841.034 ± 108.352", "unit": "pg/mL"}]}]}
